# “Also recorded” adds a separate entry of the source. Like-named read-outs stand apart in the source and are kept apart here.
# Columns and labels:
# [1] = system: CA3-CA1 transmission in the hippocampus of APPswe/PS-1 mice; test: LTP by TBS in hippocampal CA1 slices from treated APPswe/PS-1 mice; format: in vivo; settings: slices from the two sets (7- and 12-month-old) of treated APPswe/PS-1 mice
# [2] = system: synaptic proteins in hippocampus and cortex of APPswe/PS-1 mice; test: Immunoblotting of synaptic proteins in treated APPswe/PS-1 mice; format: in vivo
# [3] = biological target: T1, Immunoprecipitated GSK-3β from hippocampus of wild-type mice (Mus musculus, UniProt Q9WV60); test: Luminometric GSK-3β activity assay; format: biochemical
# T1 construct: the hippocampus of two month-old wild-type mice were lysed in immunoprecipitation buffer; from tissue; host or cells: hippocampus of two-month-old wild-type mice, immunoprecipitated with anti-GSK-3β antibody (Santa Cruz Biotechnology) on protein G beads
# Protocol: Immunoprecipitation. The immunoprecipitation was performed as previously described (Garrido et al, 2002). Briefly, the hippocampus of two month-old wild-type mice were lysed in immunoprecipitation buffer (25 mM HEPES pH 7.4, 125 mM NaCl, 25 mM NaF, 1 mM EDTA, 1 mM EGTA, 1% NP-40) including phosphatase inhibitors (1 mM NaVO3 and 200 nM okadaic acid) and the protease inhibitor cocktail described above. 200 μg of total proteins from lysate were precleared by using protein G-Sepharose beads (Santa Cruz Biotechnology) for 1 h at 4° C. and then were incubated with anti-GSK-3β antibody (Santa Cruz Biotechnology) and new protein G beads for 4 h at 4° C. The immunocomplexes were finally pelleted and washed three times with cold immunoprecipitation buffer.
# GSK-3β activity assay. IC50 of ANDRO was determined by a luminometric GSK-3β activity assay. […] Briefly, ANDRO was tested at different concentrations and diluted in kinase buffer containing final concentrations of: 40 mM Tris pH 7.5; 20 mM MgCl2; 0,1 mg/ml BSA. Diluted ANDRO was added to 25 μM pGS-2 peptide substrate (Millipore, Billerica, USA), immunoprecipited GSK-3β and 10 μM ATP (Cell Signaling, Boston, USA) to a total assay volume of 50 μl. The enzymatic reaction was stopped after 10 min of incubation to room temperature by adding 50 μl Kinase Glo (Promega, Madison, USA). The luminometric signal was allowed to stabilize for 10 min and the measured with a Luminometer TURNER DESIGNS model TD-2020.
# Immunoprecipitated GSK-3β from hippocampus of wild-type mice was incubated with ATP and pGS-2 peptide substrate for 5 min, then the reaction was stopped and the kinase activity was determined in a luminometer.
# [4] = system: CA3-CA1 connections in hippocampal slices; test: Electrophysiology in Wt hippocampal slices (fEPSP, PPF, LTP, LTD); format: cell-based, mice
# Protocol: Slice Preparation and Electrophysiology. […] Slices were transferred to an experimental chamber (2 ml), superfused (3 ml/min, at 20-22° C.) with gassed ACSF and visualized by trans-illumination with a binocular microscope (MSZ-10, Nikon, Melville, N.Y.). To evoke field excitatory postsynaptic potentials (fEPSPs), we stimulate with bipolar concentric electrodes (Platinum/Iridium, 125 μm OD diameter, FHC Inc., Bowdoin, Me.) generated by a stimulator (Axon 700b, Molecular Devices, Sunnyvale, Calif.) and connected to an isolation unit (Isoflex, AMPI, Jerusalem, Israel) . The stimulation was in the Stratum Radiatum within 100-200 μm from the recording site. The paired pulse facilitation index was calculated by ((R2−R1)/R1), where R1 and R2 were the peak amplitudes of the first and second fEPSP respectively. To generate LTP we used Theta Burst Stimulation (TBS) consisting of 5 trains of stimulus with an inter-train interval of 20 s. Each train consisted of 10 bursts at 5 Hz and each burst having 4 pulses at 100 Hz. To generate LTD we used Low Frequency Stimulation (LFS) consisting in 900 paired pulses at 1 Hz. Recordings were filtered at 2.0-3.0 kHz, sampled at 4.0 kHz using an A/D converter, and stored with pClamp 10 (Molecular Devices). Evoked postsynaptic responses were analyzed off-line, using an analysis software (pClampfit, Molecular Devices), which allowed visual detection of events, computing only those events that exceeded and arbitrary threshold.
# [5] = system: dentate gyrus of the hippocampus of wild-type mice; test: Adult hippocampal neurogenesis (Ki67, DCX immunofluorescence); format: in vivo; settings: for percentage of the granular cell layer covered by DCX staining / total number of Ki67+ cells in the SGZ: vs vehicle, 2 mg/kg
# Protocol: Animals. Two-month-old C57BC6 wild-type mice were treated and handled according to National Institutes of Health guidelines (NIH, […], Md.). The treatments were performed by intraperitoneal (ip) injection of 2.0 mg/kg ANDRO and wild-type control animals were injected only with saline solution as vehicle.
# Perfusion and postfixation. Mice were anesthetized (100 μg ketamine+10 μg xylazine in 10 μl saline/g), and then transcardially perfused with saline, followed by 4% paraformaldehyde (PFA) in 0.1M PBS. The brains were removed and incubated inPBS-4% PFA for 24 h at room temperature, dehydrated in 30% sucrose andkept at 4° C. until analysis.
# Tissue sectioning. After dehydration,each mouse brain was sectioned on a cryostate in 12 sets of serial coronal sections of 40 μm thickness (Leica Microsystems,Wetzlar, Germany) and collected in ice-cold-PBS in multiwell dishes.Each set contained 5-7 sections covering the entire length of the hippocampus.
# Inmunofluorescence for Ki67 and Doublecortin (DCX). Sections were washed with PBS 3 times for 5 min and then incubated in blocking solution (3% donkey serum, 3% BSA, 0.5% Triton X-100 in PBS) for 4 h. Then, tissues were incubated overenight with primary antibodies at 4° C. Primary antibodiesused were:rabbit anti-Ki67 (Abcam), rabbit anti-DCX (Cell Signaling Technology Inc., Beverly, Mass., USA), monoclonal anti-NeuN (Millipore, Billerica, Mass., USA). After washing 3 times with 0.5% Triton X-100 PBS, sections were incubated with Dy Light (Abcam) conjugated secondary antibodies for 2 h at room temperature. Slices were mounted on gelatin-coated slides with Fluoromont-G(Electron Microscopy Sciences, Hatfield, Pa., USA). For quantification, Ki67 positive cells were countedusing a fluorescence microscope (Olympus BX51, Tokyo, Japan). Cells were counted in all sections of one set (see tissue sectioning). Total cells counted in one set were multiplied by the total number of sets to obtain an estimation of the total number of Ki67+ cells in the complete hippocampus. For quantification of the % area covered by DCX, double labeling DCX/NeuN was carried. The total area of the granular cell layer was estimated as the area positive for NeuN staining and the percentage of this area covered by DCX staining was estimated. This image analysis was carried out using the ImageJ software (NIH, USA). Images shown were analyzed by confocal laser microscopy (Olympus FV 1000) and z-projections were generated with ImageJ software.
# [6] = 2-month-old mice, 2 mg/kg i.p. 3 times per week for 4 weeks
# T1 sequence (Q9WV60 whole entry): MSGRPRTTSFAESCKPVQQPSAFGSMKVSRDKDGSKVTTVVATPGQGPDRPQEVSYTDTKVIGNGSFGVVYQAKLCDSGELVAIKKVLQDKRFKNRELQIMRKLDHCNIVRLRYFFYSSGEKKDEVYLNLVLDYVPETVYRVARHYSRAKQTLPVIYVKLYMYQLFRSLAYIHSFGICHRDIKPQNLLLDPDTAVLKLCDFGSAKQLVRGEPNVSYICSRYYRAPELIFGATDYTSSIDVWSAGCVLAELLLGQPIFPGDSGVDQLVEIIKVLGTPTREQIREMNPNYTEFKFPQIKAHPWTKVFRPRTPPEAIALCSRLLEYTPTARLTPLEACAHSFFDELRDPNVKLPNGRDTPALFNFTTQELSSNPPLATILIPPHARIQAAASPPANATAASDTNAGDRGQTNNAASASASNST
structure (smiles),measurement,setting,value
"C=C1CC[C@@H]2C(C)(CO)[C@H](O)CC[C@@]2(C)C1C/C=C1/C(=O)OC[C@H]1O (stereo in doubt) [ANDRO, 3-(2-(Decahydro-6-hydroxy-5-(hydroxymethyl)-5,8a-dimethyl-2-methylenenaphthyl)ethylidene)dihydro-4-hydroxyfuran-2(3H)-one]",LTP induction,[1],recovery in the capacity to induce a LTP; also recorded: have the property to induce a LTP that is maintained for 1 h
same,PSD-95 and GluA2 levels,[2]; mature (12-month-old) Tg mice,increase of PSD-95 and GluA2 levels
same,total levels of pre-synaptic proteins SYP and VAMP,[2]; young APPswe/PS-1 mice,unaltered
same,"levels of post-synaptic proteins (Shank, GluN2B, GluA2, PSD-95)","[2]; young APPswe/PS-1 mice, hippocampus and cortex",significantly recovers the post-synaptic proteins
same,IC50,"[3]; different concentrations of ATP, read-out: IC50 using different concentrations of ATP",~5.58 µM
same,IC50 with increased substrate concentration,[3]; different concentrations of the substrate,increase in the IC50
same,IC50,"[3]; preincubation 10 min, 10 μM ATP, 25 μM pGS-2 peptide substrate, read-out: IC50 of GSK-3β activity",5.58 µM
same,fEPSP amplitude (basal synaptic transmission),"[4]; ANDRO (5 μM), 30 min, Wt slices",increased the fEPSP amplitude
same,paired pulse facilitation (PPF) ratio,[4]; Wt slices,does not increase PPF ratio
same,LTP induction or maintenance,"[4]; Wt slices in presence of ANDRO, TBS",do not observed alteration in the LTP induction or maintenance
same,induction of LTD (fEPSP slope after LFS),"[4]; hippocampal slices, 6-BIO 10 nM",LTD was inhibited
same,density of immature neurons positive for DCX,[5]; [6],increase in the density of immature neurons
same,percentage of the granular cell layer covered by DCX staining,[5]; [6],significantly increased
same,total number of Ki67+ cells in the SGZ,[5]; [6],significantly increased the total number of Ki67^+ cells
same,total number of Ki67+ cells in the SGZ,"[5]; 2-month-old mice, 2 mg/kg i.p. 3 times per week for 4 weeks, listed as Ando",significant increase in the total number of Ki67^+ cell
same,percentage of the granular cell layer covered by DCX staining,"[5]; 2-month-old mice, 2 mg/kg i.p. 3 times per week for 4 weeks, listed as Andro",significant increase in the percentage of the granular cell layer area covered by DCX staining
same,morphology of DCX+ cells,[5]; compared to control mice,more complex morphology
